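Following 48 hours of exposure in 96-well plates, responses at five concentrations were used to interpolate endpoints linearly. TGI denotes the concentration required for complete inhibition of growth.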 Where a SMILES comes first, the peptide text is derived from it. [ ]: non-standard residue; d: D form. The star is where a group is joined. hSer = N[CH](CCO)C(=O)O; Boc = CC(C)(C)OC(=O)*
Columns and labels:
Assay in all cases: inhibition of tumour cell growth, NCI panel, 48 h
OVCAR-4 ovarian = test system: OVCAR-4 ovarian
SF-539 CNS = test system: SF-539 CNS
HT29 colon = test system: HT29 colon
UACC-257 melanoma = test system: UACC-257 melanoma
NCI-H23 lung = test system: NCI-H23 lung
COLO 205 colon = test system: COLO 205 colon
UACC-62 melanoma = test system: UACC-62 melanoma
HCT-15 colon = test system: HCT-15 colon
NCI-H522 lung = test system: NCI-H522 lung
PC-3 prostate = test system: PC-3 prostate

Structure (SMILES) | TGI (OVCAR-4 ovarian) | TGI (SF-539 CNS) | TGI (HT29 colon) | TGI (UACC-257 melanoma) | TGI (NCI-H23 lung) | TGI (COLO 205 colon) | TGI (UACC-62 melanoma) | TGI (HCT-15 colon) | TGI (NCI-H522 lung) | TGI (PC-3 prostate)
O=c1[nH]cnc2c1nnn2CCCn1nnc2c(=O)[nH]cnc21 | > 100 µM | > 100 µM | > 100 µM | > 100 µM | > 100 µM | > 100 µM | > 100 µM | > 100 µM | > 100 µM | 
c1cnc2c(c1)-n1cccc1C1(CCOCC1)NN2 | > 100 µM | > 100 µM | > 100 µM |  | > 100 µM | > 100 µM |  | > 100 µM | > 100 µM | 
COC(=O)/C(=C/c1ccc(OC)cc1)C(C(=O)O)=C(C)C |  | > 100 µM | > 100 µM | > 100 µM | > 100 µM | > 100 µM | > 100 µM | > 100 µM | > 100 µM | 
COc1c2cc(C(C)(C)C)cc1CSCc1cc(C(C)(C)C)cc(c1OC)CCCCC2 |  | > 50 µM | > 50 µM | 49.1 µM | > 50 µM | > 50 µM | > 50 µM | > 50 µM |  | > 50 µM
Oc1c(Cl)c2nccnc2c2ccccc12 | > 100 µM | > 100 µM | > 100 µM | > 100 µM | > 100 µM | > 100 µM | > 100 µM | > 100 µM | > 100 µM | 
COCCC(NC(=O)C(CC(C)C)NC(=O)OC(C)(C)C)C(N)=O (stereo not drawn) (Boc-Leu-[hSer](Me)-NH2; configuration not given here) | > 100 µM | > 100 µM | > 100 µM | > 100 µM |  | > 100 µM | > 100 µM | > 100 µM | > 100 µM | > 100 µM
C/C(=N\Nc1nc2cc(C)ccc2s1)c1ccccn1 | > 60.5 µM | 41.2 µM | 6.69 µM | > 100 µM | 11.8 µM |  |  | 30.3 µM | > 19.9 µM | > 23.1 µM
COc1cc2c(cc1O)[C@H](C)C(c1ccc(Cl)cc1)O2 (some centres not stated) | > 100 µM | > 100 µM | > 100 µM | > 100 µM | 70.8 µM | > 100 µM | 92.4 µM | 27.7 µM | 27.3 µM | 
COc1c(C2(c3ccc(F)cc3)SCCCS2)c(=O)c1=O | > 100 µM | > 100 µM | > 100 µM | > 100 µM | > 100 µM | > 100 µM | > 100 µM | > 100 µM |  | > 100 µM
Fc1cccc(F)c1C1SCC2=Nc3ccccc3CN21 (configuration not stated) | > 100 µM | 92.7 µM |  | > 100 µM | > 100 µM | > 100 µM | > 100 µM | > 100 µM |  | > 100 µM
On1c(-c2ccccc2)c(-c2c(-c3ccccc3)n(O)c3ccccc23)c2ccccc21 | > 100 µM | 58.8 µM | > 100 µM | 88.9 µM | 90.1 µM |  | > 100 µM | > 100 µM | 52.3 µM | 

Source: PubChem BioAssay (NCI)
